Source: ChEMBL document CHEMBL1909046, “DrugMatrix in vitro pharmacology data”

How the values were obtained:
Substance-K receptor = target: T1, Substance-K receptor (Homo sapiens, UniProt P21452); format: cell membranes, CHO, Membrane; further: in other assays of this panel Not Active means under 50% inhibition at 10 µM
T1 sequence (P21452 whole entry): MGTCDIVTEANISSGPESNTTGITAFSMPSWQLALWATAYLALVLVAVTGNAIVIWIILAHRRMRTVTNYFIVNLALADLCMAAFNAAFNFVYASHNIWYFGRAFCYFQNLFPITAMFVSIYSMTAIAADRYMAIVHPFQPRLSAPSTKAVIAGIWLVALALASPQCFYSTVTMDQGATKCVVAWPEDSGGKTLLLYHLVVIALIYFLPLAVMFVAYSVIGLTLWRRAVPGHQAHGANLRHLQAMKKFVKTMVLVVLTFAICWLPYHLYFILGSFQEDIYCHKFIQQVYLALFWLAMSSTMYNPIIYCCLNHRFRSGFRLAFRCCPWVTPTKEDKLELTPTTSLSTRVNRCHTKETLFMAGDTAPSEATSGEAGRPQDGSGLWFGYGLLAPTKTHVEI

Endothelin-1 receptor = target: T2, Endothelin-1 receptor (Homo sapiens, UniProt P25101); format: cell membranes, Membrane; details: cho-k1; further: in other assays of this panel Not Active means under 50% inhibition at 10 µM
T2 sequence (P25101 whole entry): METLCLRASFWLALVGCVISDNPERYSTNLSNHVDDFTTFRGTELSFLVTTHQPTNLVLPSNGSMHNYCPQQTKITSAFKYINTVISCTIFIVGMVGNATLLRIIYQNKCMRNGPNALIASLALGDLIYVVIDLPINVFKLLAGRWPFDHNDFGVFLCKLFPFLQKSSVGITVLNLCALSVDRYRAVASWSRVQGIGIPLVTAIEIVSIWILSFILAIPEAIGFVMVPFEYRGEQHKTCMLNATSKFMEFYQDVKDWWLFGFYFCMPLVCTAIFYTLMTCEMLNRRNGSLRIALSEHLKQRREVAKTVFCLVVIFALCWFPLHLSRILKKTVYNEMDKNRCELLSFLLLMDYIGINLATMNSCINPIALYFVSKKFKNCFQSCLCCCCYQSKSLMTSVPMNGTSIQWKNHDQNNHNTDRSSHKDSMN

[1] = target: T3, Cysteinyl leukotriene receptor 1 (Homo sapiens, UniProt Q9Y271); format: cell membranes, Membrane; details: cho-k1; further: in other assays of this panel Not Active means under 50% inhibition at 10 µM
T3 sequence (Q9Y271 whole entry): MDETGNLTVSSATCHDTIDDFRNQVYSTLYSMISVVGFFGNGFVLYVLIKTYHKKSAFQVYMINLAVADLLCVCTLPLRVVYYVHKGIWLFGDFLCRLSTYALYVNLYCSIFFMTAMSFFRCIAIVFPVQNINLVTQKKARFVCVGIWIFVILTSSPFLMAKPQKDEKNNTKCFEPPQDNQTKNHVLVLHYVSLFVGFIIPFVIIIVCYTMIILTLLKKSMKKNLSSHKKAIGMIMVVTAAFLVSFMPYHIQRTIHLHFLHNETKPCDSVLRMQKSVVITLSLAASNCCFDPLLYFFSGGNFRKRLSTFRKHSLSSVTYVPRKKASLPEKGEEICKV

[2] = target: T4, Muscarinic acetylcholine receptor M4 (Homo sapiens, UniProt P08173); format: cell membranes, CHO-K1, Membrane; further: in other assays of this panel Not Active means under 50% inhibition at 10 µM
T4 sequence (P08173 whole entry): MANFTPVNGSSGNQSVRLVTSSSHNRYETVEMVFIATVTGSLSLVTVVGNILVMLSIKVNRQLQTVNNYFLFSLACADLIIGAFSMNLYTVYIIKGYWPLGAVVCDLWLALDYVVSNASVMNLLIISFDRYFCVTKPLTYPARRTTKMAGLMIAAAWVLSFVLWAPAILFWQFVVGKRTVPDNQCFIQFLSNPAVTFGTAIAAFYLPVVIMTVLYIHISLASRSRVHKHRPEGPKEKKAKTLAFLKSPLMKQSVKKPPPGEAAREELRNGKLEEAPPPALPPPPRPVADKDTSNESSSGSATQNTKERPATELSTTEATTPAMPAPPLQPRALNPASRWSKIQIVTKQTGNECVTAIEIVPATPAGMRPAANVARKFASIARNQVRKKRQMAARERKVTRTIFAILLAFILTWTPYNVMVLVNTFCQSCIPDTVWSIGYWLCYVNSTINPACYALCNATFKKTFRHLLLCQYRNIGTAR

[3] = target: Platelet-activating factor receptor (Homo sapiens, UniProt P25105); format: tissue-based; further: in other assays of this panel Not Active means under 50% inhibition at 10 µM
Chain of Platelet-activating factor receptor (P25105 whole entry): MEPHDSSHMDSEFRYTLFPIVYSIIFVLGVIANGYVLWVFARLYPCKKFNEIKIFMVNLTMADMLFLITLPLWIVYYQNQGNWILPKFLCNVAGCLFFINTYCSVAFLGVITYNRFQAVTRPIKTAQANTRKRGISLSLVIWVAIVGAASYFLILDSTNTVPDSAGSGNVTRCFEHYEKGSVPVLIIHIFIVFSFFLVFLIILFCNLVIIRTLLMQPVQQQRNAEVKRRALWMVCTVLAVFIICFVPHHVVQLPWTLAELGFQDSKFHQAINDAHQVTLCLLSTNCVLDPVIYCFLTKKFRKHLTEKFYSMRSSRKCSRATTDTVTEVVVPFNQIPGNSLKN

Progesterone receptor = target: T5, Progesterone receptor (Bos taurus, UniProt Q690N0); assay: DRUGMATRIX: Progesterone radioligand binding (ligand: [3H] R-5020); format: tissue-based, Uterus; details: Not Active = under 50% inhibition at 10 µM
T5 sequence (Q690N0 whole entry): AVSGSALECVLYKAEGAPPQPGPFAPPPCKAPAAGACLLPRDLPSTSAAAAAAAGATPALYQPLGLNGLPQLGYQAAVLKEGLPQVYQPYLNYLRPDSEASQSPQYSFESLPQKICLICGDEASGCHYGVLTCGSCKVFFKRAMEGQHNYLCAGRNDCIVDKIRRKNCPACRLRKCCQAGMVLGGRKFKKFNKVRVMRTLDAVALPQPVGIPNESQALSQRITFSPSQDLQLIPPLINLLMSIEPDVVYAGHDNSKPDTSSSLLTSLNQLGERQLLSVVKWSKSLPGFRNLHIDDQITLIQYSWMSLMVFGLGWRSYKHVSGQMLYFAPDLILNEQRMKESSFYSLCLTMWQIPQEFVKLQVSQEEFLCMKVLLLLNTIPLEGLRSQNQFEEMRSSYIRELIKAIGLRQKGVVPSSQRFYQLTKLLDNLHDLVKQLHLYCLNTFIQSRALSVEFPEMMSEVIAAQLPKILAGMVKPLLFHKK

Cytochrome P450 2E1 = Cytochrome P450 2E1 (Homo sapiens, UniProt P05181); details: bti-tn-5b1-4; further: in other assays of this panel Not Active means under 50% inhibition at 10 µM
Chain of Cytochrome P450 2E1 (P05181 whole entry): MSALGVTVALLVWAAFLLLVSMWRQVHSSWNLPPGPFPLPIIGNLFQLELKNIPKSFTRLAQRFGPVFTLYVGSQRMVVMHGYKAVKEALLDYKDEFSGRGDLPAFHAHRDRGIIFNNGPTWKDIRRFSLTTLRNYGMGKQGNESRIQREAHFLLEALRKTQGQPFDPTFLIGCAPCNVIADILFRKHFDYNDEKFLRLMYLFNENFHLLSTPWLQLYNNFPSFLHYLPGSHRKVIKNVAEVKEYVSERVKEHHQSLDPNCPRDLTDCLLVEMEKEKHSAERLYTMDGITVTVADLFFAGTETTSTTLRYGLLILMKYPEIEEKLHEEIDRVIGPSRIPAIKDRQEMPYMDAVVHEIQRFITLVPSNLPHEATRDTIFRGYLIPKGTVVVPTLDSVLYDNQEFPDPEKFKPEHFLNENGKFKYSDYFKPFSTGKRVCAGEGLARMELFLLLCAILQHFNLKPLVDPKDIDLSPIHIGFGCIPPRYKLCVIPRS

Compound | IC50 (Substance-K receptor; cho) | IC50 (Endothelin-1 receptor) | IC50 [1] | IC50 ([2]; cho-k1) | IC50 [3] | IC50 (Progesterone receptor) | IC50 (Cytochrome P450 2E1) | Ki (Cytochrome P450 2E1) | IC50 (Substance-K receptor; read-out: IC50) | Ki (Substance-K receptor; read-out: Ki) | IC50 ([2]; read-out: IC50) | Ki ([2]; read-out: Ki)
C[C@]12C=CC(=O)C=C1CC[C@@H]1[C@@H]2C(=O)C[C@@]2(C)[C@H]1CC[C@]2(O)C(=O)CO [PREDNISONE] | Not Active | Not Active | Not Active | Not Active | Not Active | Not Active |  |  |  |  |  | 
OCCOCCN1CCN(C2=Nc3ccccc3Sc3ccccc32)CC1 [QUETIAPINE] | Not Active | Not Active | Not Active |  | Not Active | Not Active | Not Active | Not Active |  |  |  | 
COC(=O)[C@H]1[C@H]2C[C@@H]3c4[nH]c5cc(OC)ccc5c4CCN3C[C@H]2C[C@@H](OC(=O)c2cc(OC)c(OC)c(OC)c2)[C@@H]1OC [RESERPINE] | Not Active | Not Active | Not Active | Not Active | Not Active | Not Active | Not Active | Not Active |  |  |  | 
O=C(O)c1ccccc1O [SALICYLIC ACID] | Not Active | Not Active | Not Active | Not Active | Not Active | Not Active | Not Active | Not Active |  |  |  | 
C[S+]([O-])c1ccc(-c2nc(-c3ccncc3)c(-c3ccc(F)cc3)[nH]2)cc1 (configuration not stated) [SB-203580] | Not Active | Not Active | Not Active | Not Active | Not Active | Not Active | Not Active | Not Active |  |  |  | 
CC1CCC(NC(=O)N(CCCl)N=O)CC1 (configuration not stated) [SEMUSTINE] | Not Active | Not Active | Not Active | Not Active | Not Active | Not Active | Not Active | Not Active |  |  |  | 
O=C1C[C@@H]2OCC=C3CN4CC[C@]56c7ccccc7N1[C@H]5[C@H]2[C@H]3C[C@H]46 [STRYCHNINE] | Not Active | Not Active | Not Active | Not Active | Not Active | Not Active | Not Active | Not Active |  |  |  | 
C[N+](C)(C)CCOC(=O)CCC(=O)OCC[N+](C)(C)C.[Cl-].[Cl-] [SUCCINYLCHOLINE CHLORIDE] | Not Active | Not Active | Not Active | Not Active | Not Active | Not Active | Not Active | Not Active |  |  |  | 
Nc1ccc(S(=O)(=O)NC(=O)c2ccccc2)cc1 [SULFABENZAMIDE] | Not Active | Not Active | Not Active | Not Active | Not Active | Not Active | Not Active | Not Active |  |  |  | 
CCCCCCCCNC(C)C(O)c1ccc(SC(C)C)cc1 (configuration not stated) [SULOCTIDIL] |  | Not Active | Not Active |  | Not Active | Not Active | Not Active | Not Active | 6.79 µM | 2.26 µM | 4.56 µM | 0.636 µM
O=c1[nH]c(=O)n(C2CCCO2)cc1F (configuration not stated) [TEGAFUR] | Not Active | Not Active | Not Active | Not Active | Not Active | Not Active | Not Active | Not Active |  |  |  | 
